For 84 compounds, melting point results are on record in a melting point compilation (Tetko et al.; mined from patent text by program, amines drawn as free bases though some values may be those of a salt).

By melting point is commonly meant the temperature of the solid-liquid transition. The compound `CCCCCCCC(CC(=O)O)CC(=O)O` came in with a melting point of 43 to 44 °C. On to `O=c1[nH]c2c(n(O)c1=O)C1=C(CCC(n3ccc(CN4CCN(c5ccc([N+](=O)[O-])cc5)CC4)c3)=C1)CC2`, for which the melting point is more than 230 °C. Under `COc1ccc2c(c1)CN(S(=O)(=O)NC(Cc1cc3c(N)nccc3s1)C(=O)N1CCC(C)CC1)CC2` (centres undefined) stands 175 to 176 °C; under `CO[C@@H]1CN(c2ccc3c(=O)c(C=O)cn(-c4nccs4)c3n2)C[C@H]1NCC(=O)OC(C)(C)C` (relative stereo), 130 to 132 °C; under `CCOC(=O)C(=O)Nc1sccc1C(N)=O`, 186 to 187 °C.

Compound `COc1ccc(-c2ccc(C=NO)o2)cc1OC` returned a melting point of 140 to 142 °C.

Consider `O=C(O)CCCOc1cccc(CCCCCCOc2ccc3c(c2CCCc2ccccc2)OCCC3=O)c1CCC(=O)O`, for which the melting point is 104 to 106 °C. Under `CCCCCCCCCC(=O)Nc1cc(C(=O)N2CCCCC2CO)c2cc[nH]c2c1` (centres undefined) stands 126 to 129 °C; under `OCc1csc(-n2cccc2)n1`, 111 to 113 °C. In the case of `CS(=O)(=O)N1CCC(c2nc3cc(-c4ccc(-n5cnnn5)cc4F)ccc3o2)CC1`, the melting point lay within 209 to 212 °C. The figure for `CCCc1ccc(S(=O)(=O)NN2CCN(C)CC2)cc1` is 153 to 154 °C; for `c1ccc(Cc2ncc(-c3ccncc3)s2)cc1` it is 46 to 47 °C; for `O=C(Nc1nc(Cl)nc(Cl)n1)NS(=O)(=O)c1cccc2cccnc12` it is 145 to 147 °C. The figure for `CCCCc1nc(CCC)nn1Cc1ccc(-c2ccccc2-c2nnn[nH]2)cc1` is 170 °C. `CCCCOc1cc(CCC(=O)O)ccc1-c1cccc(CN(C)C(=O)c2ccccc2)c1`: the melting point lay in the range of 103 to 105 °C.

For the compound `Nc1nc(N)nc(CNc2c(Br)cc(Br)cc2Br)n1`, the melting point lay within 250 to 251 °C.

The compound `CNc1c([N+](=O)[O-])cc(C)cc1[N+](=O)[O-]` had a melting point of 132 °C. Under `CCCCOn1nnc2ccc(C(O)c3ccccc3)cc21` (centres undefined) stands 89.2 °C.

In turn, `Oc1ccc(-c2cc3cc(Cl)ccc3o2)cc1` had a melting point of 216 to 218 °C. The figure for `COc1cc(CCCC2SC(=O)NC2=O)ccc1OCc1coc(CCc2ccccc2)n1` (centres undefined) is 126 to 127 °C; for `CCc1ccc(C2CCCN2S(=O)(=O)c2ccc(F)cc2)cc1` (racemic) it is 93 °C; for `CONC(=O)Nc1ccc(-c2sc3c(c2CCl)c(=O)n(-c2ccc4c(c2)OCCO4)c(=O)n3Cc2c(F)cccc2F)cc1` it is 204 to 209 °C.

Compound `COc1cc(N)cc(C)c1OCCCN1CCN(c2cccc3sccc23)CC1` yielded a melting point of 155 to 158 °C. With `COc1ccc(-c2cc(C(=O)C(C)CN3CCCC3)on2)cc1` (centres undefined), the melting point is 75 to 77 °C. The figure for `CC(C)COc1ccc(C(=O)N/C(=C\c2ccc(OC(F)F)cc2)C(=O)NCCO)cc1` is 75 to 78 °C; for `COc1ccc(N2CCN(c3c(C)c(C)c4c(c3C)C(O)(c3ccc(Cl)cc3)C(C)(C)O4)CC2)cc1` (centres undefined) it is 153 to 155 °C; for `CNC(=O)[C@H](Cc1cncn1C)NC(=O)C(Cc1cccc2ccccc12)Cc1cccc2ccccc12` it is 250 to 252 °C. Under `COc1cc(CC(=O)Nc2ccc(C3(CC(=O)O)CCCC3)cc2)ccc1NC(=O)Nc1ccccc1C` stands 223 to 226 °C; under `CCCCCCCCCCc1nnnn1CC(=O)Nc1c(C(C)C)cccc1C(C)C`, 71 to 73 °C. Compound `CCn1ccc2c(ccc3[nH]cc(CCN)c32)c1=O` came in with a melting point of 224 to 227 °C. Under `COc1cc(CNC(=S)NC(COC(=O)C(C)(C)C)Cc2ccc(C(C)(C)C)cc2)ccc1O` (centres undefined) stands 117 to 119 °C. In turn, `COc1cc2ncnc(N3CCN(C(=S)NCc4ccc(C(F)(F)F)cc4)CC3)c2cc1OC` showed a melting point of 216 to 217 °C. Under `CCOC(=O)c1c(-c2ccccc2)nc2c(C(F)(F)F)cccc2c1O` stands 114 °C; under `C[C@H](N)C(=O)N[C@@H](C)C(=O)NC(C)(Cc1ccccc1)c1ccccc1` (some centres undefined), 161 to 162 °C; under `O=C(NCCNC(c1ccccc1)(c1ccccc1)c1ccccc1)C(CCO)NC(c1ccccc1)(c1ccccc1)c1ccccc1` (centres undefined), 71 to 72 °C. The figure for `CSc1ccccc1N1CCN(Cc2nc3ccccc3[nH]2)CC1` is 214 to 216 °C. `COc1ccc(NC(=O)c2c(Cl)cccc2Cl)c2nccc(N3CCN(C)C3=O)c12` yielded a melting point of 227 to 237 °C. The figure for `CC(C)(C)OC(=O)N1CCC(N2Cc3cc(Br)ccc3C2=O)CC1` is 179 to 180 °C.

For `CNC(=O)OC(C(Oc1ccc(Cl)cc1Cl)n1cncn1)C(C)(C)CF` (centres undefined), the melting point is 124 to 127 °C.

`NC(=O)c1nc(-c2ccc(O)cc2)cs1`: the melting point was 223 to 227 °C. For the compound `O=[N+]([O-])c1ccc(CNc2ncnc3c2ncn3C2OC(CO)C(O)C2O)cc1` (centres undefined), the melting point fell in the range of 168 to 169 °C. `CC(Oc1ccc(C(=O)NCCN(O)C(N)=O)cc1)c1ccccc1` (centres undefined): the melting point is 164 to 166 °C. Under `O=C(O)c1scc(Cl)c1C(=O)Nc1ccccc1` stands 208 to 210 °C. Under `CCOC(=O)C(=O)c1ccc(OC)s1` stands 136 to 137 °C. Turning to `Cc1nc2cc(NC(=O)c3cc4cc(Cl)ncc4n3Cc3cccc(F)c3)ccc2n1C`, the melting point was in the range of 240 to 242 °C. The figure for `CNc1nc(C2(S(C)=O)C=CC=C(c3ccccc3)C2)c2cc(OC)c(OC)cc2n1` (centres undefined) is 163 to 165 °C; for `O=C1CCc2ncc3c(c21)CCO3` it is 148 to 149 °C; for `COc1c(C(=O)C=Cc2ccncc2)cc(Cl)c(N)c1OC` it is 220 to 223 °C. The figure for `Nc1ccccc1CCN1CCCCC1` is 36 to 38 °C.

`COC(=O)CCCCCC(c1ccccc1)c1c(C)c(O)c(C)c(C)c1OC(C)=O` (centres undefined) returned a melting point of 146 to 148 °C. For `Cc1ccc(CC(CNC(=S)NC(C)c2ccc(NS(C)(=O)=O)c(F)c2)COC(=O)C(C)(C)C)cc1C` (centres undefined), the melting point is 73 °C. Consider `CC(=O)c1c(-c2ccncc2)[nH]c(-c2ccncc2)c1CO`, for which the melting point is 205 to 207 °C. The figure for `O=C1OC(CN2CCC(O)(c3ccccc3)CC2)CN1c1ccccc1` (centres undefined) is 121 to 122 °C; for `C=CCNc1nc(Cl)nc(N(CCCCCCN(c2nc(Cl)nc(NCC=C)n2)C2CC(C)(C)NC(C)(C)C2)C2CC(C)(C)NC(C)(C)C2)n1` it is 210 to 211 °C. Under `CC(C)S(=O)(=O)n1c(N)nc2ccc(C(=C(Cl)Cl)c3ccccc3)cc21` stands 187 to 188 °C; under `CN1Cn2cc(CO)cc2-c2ccccc21`, 74 to 76 °C; under `CC(C)(C)c1cc(OCc2n[nH]c(=O)o2)cc(C(C)(C)C)c1O`, 138 to 140 °C.

As for `Cc1c(NC(=O)CC(C)(C)C)cc2c(c1C)OCC2(C)c1ccc(C(C)C)cc1` (centres undefined), the melting point was in the range of 132 to 133 °C.

Consider `CNc1ccc(C)nc1N`, for which the melting point was 112 to 113 °C. Under `Cc1oc(-c2ccco2)nc1COc1ccc(COc2nn(Cc3ccccc3)cc2C=O)cc1-c1ccccc1` stands 122 to 123 °C; under `CCOC(=O)C(CCc1ccccc1)N[C@H]1CSC(c2ccccc2)N(CC(=O)O)C1=O` (some centres undefined), 47 to 52 °C; under `CCC(NC(C)=O)c1ccc(CN2CCN(c3ccc(F)cc3)CC2)cc1` (centres undefined), 113 to 114 °C. Under `O=C(OCc1ccccc1)c1ncoc1CCNC(=O)[C@H](O)Cc1ccccc1` stands 106 to 108 °C.

In turn, `CN1CCC(C2(O)c3ccccc3CCn3cccc32)CC1` (centres undefined) showed a melting point of 175 to 177 °C. The figure for `CCOC(=O)Oc1c(OC)cc(Cl)c2c1CN1CCc3cc(OC)c(OCc4ccccc4)cc3C1C2` (centres undefined) is 128 °C.

The compound `CCOC(=O)c1cccc(NC(=O)NCC(=O)N2[C@@H](C(=O)OCC)CC[C@H]2c2ccccc2)c1` (racemic) registered a melting point of 136 °C. Under `O=C1c2cscc2Nc2ccccc2N1Cc1ccc(Cl)c(C(F)(F)F)c1` stands 181 to 183 °C; under `Nc1ccnc(CCCCN2C(=O)c3ccccc3C2=O)n1`, 139 to 140 °C. Under `Nc1ccc2cnc(Nc3ccc(F)cc3)nc2n1` stands 245 to 248 °C; under `CC1(C)[C@@H](CNS(C)(=O)=O)CC[C@@]1(C)NCC(=O)N1C[C@@H](F)C[C@H]1C#N`, 157 to 160 °C; under `CCN(CC)c1ccc(C2(c3c(C)n(CC)c4ccccc34)OC(=O)c3ccccc32)c(OCc2ccccc2)c1` (centres undefined), 138 °C.

For the compound `O=C(CN1CCCC1=O)Nc1ccc(-c2ncc(C(=O)O)c(O)n2)cc1`, the melting point is more than 320 °C. Compound `COc1ccc(-c2ccc3c(c2)CCCc2c-3nc3ccc(F)cc3c2C(=O)O)cc1` showed a melting point of more than 300 °C. Under `COC(=O)c1ccc(OCCNC(=O)C2Cc3ccccc3N2S(=O)(=O)c2ccc(-c3ccc(F)cc3)cc2)c(F)c1` (centres undefined) stands 82 to 87 °C; under `O=C(NN1CCCCCC1)C(CS)Cc1ccccc1` (centres undefined), 82 °C; under `CC(c1oc2ccc(F)cc2c(=O)c1-c1ccccc1)n1cnc2c(N)ncnc21` (centres undefined), 264 to 269 °C.

As to `COc1cc(Nc2nccc(-c3c[nH]c4ccccc34)n2)cc(OC)c1OC`, the melting point was found to be 197 °C.

As for `CCc1nc(C(F)(F)F)c(CN(C(=O)C2CCCc3c(O)cccc32)c2ccc(C(C)C)nc2)s1` (centres undefined), the melting point came to 164 °C.

On to `Cn1nc(Cl)n(-c2ccccc2CBr)c1=O`, for which the melting point was in the range of 132 to 133 °C. In turn, `Cn1ncnc1COc1nn2c(-c3ccc(F)cc3F)nncc2c1-c1ccccc1F` had a melting point of 164 to 166 °C. The figure for `OC(COc1cccc2[nH]nnc12)CN1CCC(COc2ccccc2)CC1` (centres undefined) is 187 to 189 °C; for `COc1ccc(Oc2ccc(OC(=O)NC(C)CCCC(C)C)cc2)cc1` (centres undefined) it is 64 to 65 °C; for `CC(C)(C)OC(=O)CC(NC(=O)C1CCCN2C(=O)CCC(NS(C)(=O)=O)C(=O)N12)C(=O)COC(=O)c1ccccc1Oc1ccccc1` (centres undefined) it is 85 to 100 °C.

Consider `COC(=O)C1C(NC(C)=O)CC(=O)OC1C` (centres undefined), for which the melting point is 135 to 136 °C.
